{"source": "patent US7026527B2", "about": "“Plant methionine synthase gene and methods for increasing the methionine content of the seeds of plants” (priority 1995, dated 2006)", "key": {"[1]": {"tested_on": "E. coli strain Gif106M1 transformed with pBT436", "format": "cell-based", "conditions": "M9 media with arginine, isoleucine, ampicillin", "description": "To establish that the cloned lysC gene was functional, pBT436 was transformed into E. coli strain Gif106M1 (E. coli Genetic Stock Center strain CGSC-5074) which has mutations in each of the three E. coli AK genes [Theze et al., J. Bacteriol., (1974), 117, 133-143|. This strain lacks all AK activity and therefore requires diaminopimelate (a precursor to lysine which is also essential for cell wall biosynthesis), threonine and methionine.\nM9 media [see Sambrook et al. (1989) Molecular Cloning: A Laboratory Manual, Cold Spring Harbor Laboratory Press| supplemented with the arginine and isoleucine, required for Gif106M1 growth, and ampicillin, to maintain selection for the pBT436 plasmid, was used. […] This property of pBT436-transforned Gif106M1 was used to select for mutations in lysC that encoded lysine-insensitive AKIII."}, "wild type AKIII [2]": {"biological_target": "T1, wild type AKIII (Escherichia coli, UniProt P08660)", "T1 construct": "made in house; host or cells: E. coli Gif106M1 (lacks all AK activity) transformed with pBT436", "T1 sequence (P08660 2-449 G401A)": "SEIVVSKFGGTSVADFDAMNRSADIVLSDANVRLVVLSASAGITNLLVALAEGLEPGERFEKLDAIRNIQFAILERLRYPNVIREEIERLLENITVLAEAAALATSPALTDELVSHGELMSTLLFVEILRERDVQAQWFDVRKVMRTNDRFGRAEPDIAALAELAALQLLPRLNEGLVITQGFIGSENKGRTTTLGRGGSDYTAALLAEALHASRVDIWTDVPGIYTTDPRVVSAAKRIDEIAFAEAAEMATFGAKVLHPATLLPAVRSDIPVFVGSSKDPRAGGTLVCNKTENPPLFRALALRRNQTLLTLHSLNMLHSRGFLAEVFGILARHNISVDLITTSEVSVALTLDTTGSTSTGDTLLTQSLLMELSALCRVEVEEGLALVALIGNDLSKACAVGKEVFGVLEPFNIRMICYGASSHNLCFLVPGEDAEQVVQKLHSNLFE", "experiment": "Lysine inhibition of wild type AKIII aspartokinase activity", "format": "biochemical, E. coli", "description": "(§1) Single colonies of Gif106M1 transformed with pBT436 were picked and resuspended in 200 μL of a mixture of 100 μL 1% lysine plus 100 μL of M9 media. The entire cell suspension containing 10^7-10^8 cells was spread on a petri dish containing M9 media supplemented with the arginine, isoleucine, and ampicillin. Sixteen petri dishes were thus prepared. From 1 to 20 colonies appeared on 11 of the 16 petri dishes. One or two (if available) colonies were picked and retested for lysine resistance and from this nine lysine-resistant clones were obtained. Plasmid DNA was prepared from eight of these and re-transformed into Gif106M1 to determine whether the lysine resistance determinant was plasmid-borne. Six of the eight plasmid DNAs yielded lysine-resistant colonies. Three of these six carried lysC genes encoding AKIII that was uninhibited by 15 mM lysine, whereas wild type AKIII is 50% inhibited by 0.3-0.4 mM lysine and >90% inhibited by 1 mM lysine.\n(§2) Assay mix (for 12×1.0 mL or 48×0.25 mL assays): • 2.5 mL H2O • 2.0 mL 4M KOH • 2.0 mL 4M NH2OH—HCl • 1.0 mL 1M Tris-HCl pH 8.0 • 0.5 mL 0.2M ATP (121 mg/ml in 0.2M NaOH) • 50 μL 1M MgSO4\n(§3) Each 1.5 mL eppendorf assay tube contains:\n(§4) Assay tubes are incubated at 30° C. for 30-60 min […];\n(§5) Spin for 2 min in eppendorf centrifuge tube. Read OD at […]."}, "wild type AKIII [3]": {"biological_target": "T2, wild type AKIII (Escherichia coli, UniProt P08660, G401A)", "T2 construct": "made in house; host or cells: E. coli Gif106M1 (lacks all AK activity) transformed with pBT436", "T2 sequence (P08660 2-449 G401A)": "as above", "experiment": "Lysine inhibition of wild type AKIII aspartokinase activity", "format": "biochemical, E. coli", "conditions": "read-out: inhibition of AKIII", "description": "as §1, §2, §3, §4, §5"}, "[4]": {"biological_target": "T3, AKIII encoded by mutant lysC genes (lysine-insensitive) (Escherichia coli, UniProt P08660, G401A/T352I)", "T3 construct": "made in house; host or cells: E. coli Gif106M1 carrying mutated pBT436 plasmids", "T3 sequence (P08660 2-449 T352I/G401A)": "as the sequence (P08660 2-449 G401A) above, with T351I counted along it", "format": "biochemical, E. coli", "conditions": "15 mM lysine; three mutant lysC genes (M2, M3, M4)", "description": "as §1\nThe sequences of the three mutant lysC genes that encoded lysine-insensitive AK each differed from the wild type sequence by a single nucleotide, resulting in a single amino acid substitution in the protein. […] Thus, either of these single amino acid substitutions is sufficient to render the AKIII enzyme insensitive to lysine inhibition. […]\nas §5"}, "AKII-HDHII (AK activity)": {"biological_target": "T4, AKII-HDHII (AK activity) (Escherichia coli, UniProt P00562)", "T4 construct": "The primers also add a Kpn I site immediately following the translation stop codon; made in house; host or cells: E. coli BL21(DE3), pBT430-derived T7 vector; supernatant of sonicated cells (clone 5, plasmid pBT718)", "T4 sequence (P00562 other isoform, or with tags, fused parts or gaps)": "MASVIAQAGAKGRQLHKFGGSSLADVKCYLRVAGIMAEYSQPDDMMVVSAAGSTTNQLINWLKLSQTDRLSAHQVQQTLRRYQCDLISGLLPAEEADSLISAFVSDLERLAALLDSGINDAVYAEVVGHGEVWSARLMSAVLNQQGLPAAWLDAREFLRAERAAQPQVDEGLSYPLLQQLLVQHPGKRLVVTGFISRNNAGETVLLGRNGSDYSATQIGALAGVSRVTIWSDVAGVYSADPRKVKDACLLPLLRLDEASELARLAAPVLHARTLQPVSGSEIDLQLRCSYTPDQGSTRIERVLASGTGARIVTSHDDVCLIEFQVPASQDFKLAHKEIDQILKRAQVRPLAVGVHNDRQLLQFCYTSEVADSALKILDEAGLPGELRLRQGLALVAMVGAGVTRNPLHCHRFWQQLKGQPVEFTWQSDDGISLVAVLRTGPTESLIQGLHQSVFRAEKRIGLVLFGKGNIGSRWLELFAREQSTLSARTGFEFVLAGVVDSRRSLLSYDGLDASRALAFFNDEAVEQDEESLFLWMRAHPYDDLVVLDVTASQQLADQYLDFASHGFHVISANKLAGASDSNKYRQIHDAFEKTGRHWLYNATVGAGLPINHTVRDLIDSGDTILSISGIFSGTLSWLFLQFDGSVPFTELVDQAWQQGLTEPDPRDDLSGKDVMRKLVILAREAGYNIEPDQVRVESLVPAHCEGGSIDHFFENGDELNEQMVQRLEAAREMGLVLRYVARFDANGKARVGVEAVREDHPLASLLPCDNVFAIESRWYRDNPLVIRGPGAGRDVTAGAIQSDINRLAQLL", "experiment": "AK activity of AKII-HDHII extract (clone 5), inhibition by pathway end-products", "format": "biochemical, E. coli", "conditions": "30 mM end-product; extract from clone 5", "description": "These four were then assayed for AK activity. AK activity was assayed as shown below:\nas §2\npH of assay mix should be 7-8\nas §3, §4, §5\nTwo extracts also had high levels of AK enzyme activity. These two extracts were then tested for inhibition of AK or HDH activity by the pathway end-products, lys, thr and met."}, "[5]": {"biological_target": "T5, AKII-HDHII (HDH activity) (Escherichia coli, UniProt P00562)", "T5 construct": "The primers also add a Kpn I site immediately following the translation stop codon; made in house; host or cells: E. coli BL21(DE3), pBT430-derived T7 vector; supernatant of sonicated cells (clone 5, plasmid pBT718)", "T5 sequence (P00562 other isoform, or with tags, fused parts or gaps)": "as above", "experiment": "HDH activity of AKII-HDHII extract (clone 5), inhibition by pathway end-products", "format": "biochemical, E. coli", "conditions": "30 mM end-product; extract from clone 5", "method": "The cells were collected by centririgation and resuspended in 1/25th the original culture volume in 50 mM NaCl; 50 mM Tris-Cl, pH 7.5; 1 mM EDTA, and frozen at −20° C., thawed at 37° C. and sonicated, in an ice-water bath, to lyse the cells. The lysate was centrifuged at 4° C. for 5 min at 12,000 rpm. The supernatant was removed and the pellet was resuspended in the above buffer. The supernatant fractions were assayed for HDH enzyme activities to identify clones expressing functional proteins. HDH activity was assayed as shown below: HDH ASSAY\nMake Mixture of above reagents with amounts multiplied by number of assays. Use 0.9 mL of mix for 1 mL assay; 180 μL of mix for 0.2 mL assay in microtiter dish\nto ½ the assay mix; remaining ½ lacks ASA to serve as blank\nAdd enzyme extract last to start reaction. Incubate at ˜30° C.; monitor NADPH oxidation at 340 nM. 1 unit oxidizes 1 μmol NADPH/min at 30° C. in the 1 mL reaction."}}, "data": [{"smiles": "NC(CCCC(N)C(=O)O)C(=O)O", "note": "(centres unmarked) [diaminopimelate]", "values": [{"measurement": "concentration in growth medium that inhibits growth", "setting": "[1]", "result": "approximately 0.2 mM"}]}, {"smiles": "NCCCC[C@H](N)C(=O)O", "note": "[lysine]", "values": [{"measurement": "IC50", "setting": "wild type AKIII [2]", "result": "300 to 400", "unit": "µM"}, {"measurement": "inhibition at 1000 µM", "setting": "wild type AKIII [3]", "result": "> 90", "unit": "%"}, {"measurement": "inhibition of mutant AKIII", "setting": "[4]", "result": "uninhibited"}, {"measurement": "concentration in growth medium that inhibits growth", "setting": "[1]", "result": "approximately 0.2 mM"}, {"measurement": "inhibition of AK activity", "setting": "AKII-HDHII (AK activity)", "result": "Neither the AK nor the HDH activity of the extract from clone 5 was inhibited"}, {"measurement": "inhibition of HDH activity", "setting": "[5]", "result": "Neither the AK nor the HDH activity of the extract from clone 5 was inhibited"}]}, {"smiles": "CSCC[C@H](N)C(=O)O", "note": "[methionine]", "values": [{"measurement": "inhibition of AK activity", "setting": "AKII-HDHII (AK activity)", "result": "Neither the AK nor the HDH activity of the extract from clone 5 was inhibited"}, {"measurement": "inhibition of HDH activity", "setting": "[5]", "result": "Neither the AK nor the HDH activity of the extract from clone 5 was inhibited"}]}, {"smiles": "C[C@@H](O)[C@H](N)C(=O)O", "note": "[threonine]", "values": [{"measurement": "inhibition of AK activity", "setting": "AKII-HDHII (AK activity)", "result": "Neither the AK nor the HDH activity of the extract from clone 5 was inhibited"}, {"measurement": "inhibition of HDH activity", "setting": "[5]", "result": "Neither the AK nor the HDH activity of the extract from clone 5 was inhibited"}]}]}
